Test system: wild-type zebrafish larvae
Test: Behavioral assay: light-induced motion response of wild-type larvae
Assay type: in vivo, Zebrafish (Danio rerio)
Experimental: A total of 1,000 compounds were selected from the ChemBridge Corp. catalog. Compounds were dissolved in DMSO at a stock concentration of 1 μg/μL (˜1.5 mM). The library was screened at a 1:100 dilution in E3 solution for a final concentration of ˜15 μM. Negative controls were treated with an equal volume of DMSO. Groups of 3 larvae at 3 days post fertilization (dpf) were distributed into the wells of 96-well clear bottom black microplates (07-200-567; Fisher Scientific) in 150 μL E3 before the addition of small molecules. Stock solutions of compounds were added directly to zebrafish in the wells of a 96 well plate (Corning 3631), mixed, and allowed to incubate for 1 h in the dark at 28.5° C. prior to behavioral evaluation in the behavioral assay. Ordering information: 1 (5533696; ChemBridge); 3 (5538408; ChemBridge).
Larvae in each of the wells were exposed to four 1 second flashes of light stimulus in the following order: 450-500 nm (WL1), 415-455 nm (WL2), 352-402 nm (WL3), white light (WL4), with a 5 second inter-stimulus interval. Digital video recording was performed for 5 seconds before the first light stimuli and continued throughout the stimulation sequence. Band pass filters (Semrock FF02-475/50, FF02-435/40, FF01-377/50) were used to restrict the excitation light to the indicated wavelengths. […] 290 frames of digital video were recorded per well at 10 FPS using an EMCCD camera (C9100; Hamamatsu) mounted on an inverted compound microscope (AxioObserver A1; Zeiss) with a NA 0.03 1.25× objective and a barrier with a 0.7 mm diameter opening to restrict light scattering to the sample. MetaMorph software (Molecular Devices) was used to control the execution of TTL signals and camera capture using the built-in stream acquisition with trigger function. Each video was saved for review. Light stimuli were generated with an ozone free 300-Watt xenon bulb housed in a Lambda LS illuminator (Sutter Instruments). A dichroic mirror (T510LPXRXT; Chroma) was used for appropriate excitation of samples and bright field acquisition. Schott longpass absorption glass (RG610; Chroma) was added in the transmitted light path to reduce unwanted excitation to the well and to provide sufficient light for video recording. All behavioral experiments were conducted at room temperature. […]
To analyze digital video recordings, custom MetaMorph software scripts were used to automatically threshold the video to identify the area of larvae in each frame. Threshold images of the frames after each light activation event were overlaid to calculate a new combined threshold area. The motion index was calculated as the percentage change between the threshold area in the frame right before light activation and the new combined threshold area. This motion index correlates with the overall amount of motion in the well.

SMILES: Cc1nn(C)c(C)c1/N=N/c1ccc(NC(=O)c2cccs2)cc1NC(=O)c1cccs1 [Compound 9, (E)-N,N′-(4-((1,3,5-trimethyl-1H-pyrazol-4-yl)diazenyl)-1,3-phenylene)bis(thiophene-2-carboxamide)]
- light-induced motion response (in vivo activity) (3 dpf wild-type larvae, 1 s flashes WL1-WL4): comparable biological response to TRPswitch-A
- effect of DABCO on light-induced motion response (DABCO, singlet oxygen quencher): no effect
